According to PubChem BioAssay (NCI):
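Five concentrations, 48 hours, 96-well plates. GI50 = concentration required for 50% inhibition of growth. TGI denotes the concentration required for complete inhibition of growth.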

What was measured:
Assay in all cases: inhibition of tumour cell growth, NCI panel, 48 h
U251 CNS = tested on: U251 CNS
NCI-H522 lung = tested on: NCI-H522 lung
OVCAR-3 ovarian = tested on: OVCAR-3 ovarian
EKVX NSCLC = tested on: EKVX NSCLC
HL-60(TB) leukemia = tested on: HL-60(TB) leukemia
IGROV1 ovarian = tested on: IGROV1 ovarian
LOX IMVI melanoma = tested on: LOX IMVI melanoma
UACC-62 melanoma = tested on: UACC-62 melanoma
PC-3 prostate = tested on: PC-3 prostate
KM12 colon = tested on: KM12 colon

Compound	GI50 (U251 CNS)	TGI (U251 CNS)	GI50 (NCI-H522 lung)	TGI (NCI-H522 lung)	GI50 (OVCAR-3 ovarian)	TGI (OVCAR-3 ovarian)	GI50 (EKVX NSCLC)	TGI (EKVX NSCLC)	GI50 (HL-60(TB) leukemia)	TGI (HL-60(TB) leukemia)	GI50 (IGROV1 ovarian)	TGI (IGROV1 ovarian)	GI50 (LOX IMVI melanoma)	TGI (LOX IMVI melanoma)	GI50 (UACC-62 melanoma)	TGI (UACC-62 melanoma)	GI50 (PC-3 prostate)	TGI (PC-3 prostate)	GI50 (KM12 colon)	TGI (KM12 colon)
Cc1cn2c(/C=C3\C(=O)Nc4ccc(O)cc43)c(-c3ccc(Cl)cc3)nc2s1	14.3 µM	28.9 µM	11.3 µM	57.9 µM	16.9 µM	38.3 µM	14.9 µM	60.6 µM	14.4 µM	40.7 µM	5.56 µM	23.9 µM	21.3 µM	> 100 µM	9.4 µM	56.2 µM	22.2 µM	> 100 µM	45.4 µM	> 100 µM
CCN1CCN=c2c3cc(OC)ccc3n3cnc4ccc1c2c43		1.05 µM		0.207 µM		0.525 µM		2.33 µM		0.483 µM		7.62 µM		0.776 µM		0.975 µM		0.8 µM		1.21 µM
C1CSCCSCCS1		> 100 µM		> 100 µM		> 100 µM		> 100 µM		> 100 µM		> 100 µM		> 100 µM		> 100 µM		> 100 µM		> 100 µM
C=CC(=O)N1CCC(C2CCNc3c(C(N)=O)c(-c4ccc(Oc5ccccc5)cc4)nn32)CC1 (stereo not drawn)	19.7 µM	96.3 µM	4.93 µM	22.7 µM	12.2 µM	56.2 µM	3.49 µM	42 µM	14.6 µM	40.3 µM	0.796 µM	16.9 µM	13.3 µM	29.4 µM	10.6 µM	27 µM	22 µM	69.6 µM	22.9 µM	67 µM
Oc1cc(O)c2c(c1)OC(c1ccc(O)c(O)c1)C(OC1(c3cc(O)c(O)c(O)c3)Oc3cc(O)cc(O)c3C(O)C1O)C2 (stereo not drawn)		46.2 µM		49.7 µM		> 80 µM		41.6 µM		52.8 µM		> 86.2 µM		38.4 µM		> 100 µM		> 100 µM		> 70.9 µM
O=c1c2ccccc2sc2cccc(NCCCN3CCN(CCCNc4cccc5sc6ccccc6c(=O)c45)CC3)c12		> 100 µM		> 100 µM		> 100 µM		> 100 µM		> 100 µM		> 100 µM		> 100 µM		> 100 µM		> 100 µM		> 100 µM
O=C(CC(O)(C(F)(F)F)C(F)(F)F)c1cc(CC(=O)C(O)(C(F)(F)F)C(F)(F)F)cc(CC(=O)C(O)(C(F)(F)F)C(F)(F)F)c1		6.4 µM		4.59 µM		3.52 µM		> 9.06 µM		> 10 µM		4.15 µM		2.81 µM		4.11 µM		3.95 µM		2.96 µM
COc1cccc2c1C(=O)c1c(O)c3c(c(O)c1C2=O)CC(O)(/C(C)=N/NC(=O)CCC(=O)N/N=C(\C)C1(O)Cc2c(O)c4c(c(O)c2C(OC2CC(N)C(O)C(C)O2)C1)C(=O)c1c(OC)cccc1C4=O)CC3OC1CC(N)C(O)C(C)O1 (stereo not drawn)			0.0503 µM	0.327 µM	0.259 µM	2.66 µM	1.12 µM	22.1 µM	0.397 µM	4.23 µM	0.108 µM	1.08 µM	0.126 µM	1.05 µM			0.958 µM	> 21.2 µM	0.755 µM	> 14.5 µM
Cc1nc2ccccc2nc1-c1ccc(N=[N+]([O-])c2ccc(-c3nc4ccccc4nc3C)cc2)cc1		> 63.2 µM		> 100 µM		> 100 µM		> 100 µM		> 100 µM		> 100 µM		> 100 µM		> 100 µM		> 100 µM		> 100 µM
Nc1nccc2c1ccn2-c1ccc(NC(=O)c2ccc(N3CCOCC3)c(C(F)(F)F)c2)cc1	0.341 µM	5.19 µM	1.12 µM	6.71 µM	1.38 µM	15.7 µM	1.69 µM	70.2 µM	0.479 µM		1.56 µM	30.4 µM	0.331 µM	1.48 µM	0.337 µM	1.19 µM	0.499 µM	17.4 µM	0.557 µM	8.5 µM
Cn1cnc([N+](=O)[O-])c1S(=O)(=O)Oc1ccccc1	23.5 µM	> 66.3 µM	0.759 µM	2.3 µM	2.14 µM	4.3 µM	17 µM	41.2 µM	12.1 µM	34.4 µM	2.21 µM	4.76 µM	3.3 µM	9.9 µM	14.9 µM	32.2 µM	20.6 µM	62 µM	26.2 µM	> 78.4 µM
C[C@H]1Oc2cc(cnc2N)-c2c(nn(C)c2C#N)CN(C)C(=O)c2ccc(F)cc21	> 100 µM	> 100 µM	57 µM	> 100 µM	> 89.3 µM	> 100 µM	16 µM	> 100 µM	> 100 µM	> 100 µM	28.1 µM	> 100 µM	40.5 µM	> 100 µM	22.4 µM	> 100 µM	> 100 µM	> 100 µM	0.275 µM	> 100 µM
COC12C=C/C(=C(/C(=O)OCc3ccncc3)C(=O)CCCCCCCCC3(OC)C=C/C(=C(/C(=O)OCc4ccncc4)C(=O)CCCCCCCC1)O3)O2	0.5 µM	1.46 µM	0.564 µM	1.76 µM	0.207 µM	0.93 µM	1.21 µM	5.1 µM	0.371 µM	1.96 µM	0.316 µM	2.14 µM	0.107 µM	0.264 µM			0.761 µM	2.67 µM	0.78 µM	1.78 µM
O=C(c1ccc(Cl)cc1)c1cnc(Nc2ccccc2Cl)s1		> 80.9 µM		53.1 µM		40.9 µM		50.5 µM		> 100 µM		74.2 µM		> 100 µM		66.4 µM		55.5 µM		> 78.3 µM
CC1(C)OCCn2c1nc1c(N3CCOCC3)nc(-c3cnc(N)nc3)nc12	0.673 µM	34 µM	0.415 µM	40.8 µM	0.308 µM	> 31.5 µM	0.16 µM	2.64 µM	0.141 µM	> 31.3 µM	0.0622 µM	0.432 µM	0.265 µM	> 27.4 µM	0.185 µM	1.42 µM	0.318 µM	> 68.6 µM	0.761 µM	> 100 µM
